Measurements taken from US8575158B2, “1-phenyl-substituted heterocyclyl derivatives and their use as prostaglandin D2 receptor modulators” (Actelion Pharmaceuticals Ltd., priority 2010, dated 2013).

Target: T1, hCRTH2 receptor (Homo sapiens, UniProt Q9Y5Y4)
T1 construct: expressed in transfected cells; host or cells: HEK293
T1 sequence (Q9Y5Y4 1-395): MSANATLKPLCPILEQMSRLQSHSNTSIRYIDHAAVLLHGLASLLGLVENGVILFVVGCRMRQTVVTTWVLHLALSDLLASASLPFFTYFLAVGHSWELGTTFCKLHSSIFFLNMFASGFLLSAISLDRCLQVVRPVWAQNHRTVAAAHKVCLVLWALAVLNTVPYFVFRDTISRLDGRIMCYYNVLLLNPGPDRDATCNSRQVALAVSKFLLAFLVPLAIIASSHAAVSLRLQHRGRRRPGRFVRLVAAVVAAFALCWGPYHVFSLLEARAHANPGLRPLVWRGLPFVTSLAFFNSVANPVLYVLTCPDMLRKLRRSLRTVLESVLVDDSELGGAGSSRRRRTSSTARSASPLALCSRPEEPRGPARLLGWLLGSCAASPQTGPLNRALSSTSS
Assay: Radioligand displacement assay (3H-PGD2) on hCRTH2 receptor membranes
Format: binding
Settings: antagonistic activity, 3H-PGD2 radioligand displacement, HEK293-hCRTH2 membranes

Structure (SMILES) | IC50 [nM]
O=C(O)COc1ccc(Cl)cc1[C@@H]1c2ccc(F)cc2CCN1C(=O)OCCc1cccc(F)c1 [Example 336, (S)-1-(2-Carboxymethoxy-5-chloro-phenyl)-6-fluoro-3,4-dihydro-1H-isoquinoline-2-carboxylic acid 2-(3-fluoro-phenyl)-ethyl ester] | 11.5
Cn1nccc1COC(=O)N1CCc2cc(F)ccc2[C@H]1c1cc(Cl)ccc1OCC(=O)O [Example 337, (S)-1-(2-Carboxymethoxy-5-chloro-phenyl)-6-fluoro-3,4-dihydro-1H-isoquinoline-2-carboxylic acid 2-methyl-2H-pyrazol-3-ylmethyl ester] | 3.61
Cc1cc(COC(=O)N2CCc3cc(F)ccc3[C@H]2c2cc(Cl)ccc2OCC(=O)O)n(C)n1 [Example 338, (S)-1-(2-Carboxymethoxy-5-chloro-phenyl)-6-fluoro-3,4-dihydro-1H-isoquinoline-2-carboxylic acid 2,5-dimethyl-2H-pyrazol-3-ylmethyl ester] | 3.13
CCn1nc(C)cc1CCOC(=O)N1CCc2cc(F)ccc2[C@H]1c1cc(Cl)ccc1OCC(=O)O [Example 339, (S)-1-(2-Carboxymethoxy-5-chloro-phenyl)-6-fluoro-3,4-dihydro-1H-isoquinoline-2-carboxylic acid 2-(2-ethyl-5-methyl-2H-pyrazol-3-yl)-ethyl ester] | 11.5
Cn1cncc1COC(=O)N1CCc2cc(F)ccc2[C@H]1c1cc(Cl)ccc1OCC(=O)O [Example 340, (S)-1-(2-Carboxymethoxy-5-chloro-phenyl)-6-fluoro-3,4-dihydro-1H-isoquinoline-2-carboxylic acid 3-methyl-3H-imidazol-4-ylmethyl ester] | 5.17
Cc1cc(C)n(CCOC(=O)N2CCc3cc(F)ccc3[C@H]2c2cc(Cl)ccc2OCC(=O)O)n1 [Example 341, (S)-1-(2-Carboxymethoxy-5-chloro-phenyl)-6-fluoro-3,4-dihydro-1H-isoquinoline-2-carboxylic acid 2-(3,5-dimethyl-pyrazol-1-yl)-ethyl ester] | 11.1
Cc1cnn(COC(=O)N2CCc3cc(F)ccc3[C@H]2c2cc(Cl)ccc2OCC(=O)O)c1 [Example 342, (S)-1-(2-Carboxymethoxy-5-chloro-phenyl)-6-fluoro-3,4-dihydro-1H-isoquinoline-2-carboxylic acid 4-methyl-pyrazol-1-ylmethyl ester] | 17.9
Cc1nc2ccccc2n1CCOC(=O)N1CCc2cc(F)ccc2[C@H]1c1cc(Cl)ccc1OCC(=O)O [Example 343] | 266
O=C(O)COc1ccc(Cl)cc1[C@@H]1c2ccc(F)cc2CCN1C(=O)OCc1nc2ccccc2s1 [Example 344, (S)-1-(2-Carboxymethoxy-5-chloro-phenyl)-6-fluoro-3,4-dihydro-1H-isoquinoline-2-carboxylic acid benzothiazol-2-ylmethyl ester] | 37.8
O=C(O)COc1ccc(Cl)cc1[C@@H]1c2ccc(F)cc2CCN1C(=O)OCc1nc2ccccc2o1 [Example 345, (S)-1-(2-Carboxymethoxy-5-chloro-phenyl)-6-fluoro-3,4-dihydro-1H-isoquinoline-2-carboxylic acid benzooxazol-2-ylmethyl ester] | 12.4
Cn1nc(COC(=O)N2CCc3cc(F)ccc3[C@H]2c2cc(Cl)ccc2OCC(=O)O)c2ccccc21 [Example 346, (S)-1-(2-Carboxymethoxy-5-chloro-phenyl)-6-fluoro-3,4-dihydro-1H-isoquinoline-2-carboxylic acid 1-methyl-1H-indazol-3-ylmethyl ester] | 1.16
O=C(O)COc1ccc(Cl)cc1[C@@H]1c2ccc(F)cc2CCN1C(=O)OCn1ncc2ccccc21 [Example 347, (S)-1-(2-Carboxymethoxy-5-chloro-phenyl)-6-fluoro-3,4-dihydro-1H-isoquinoline-2-carboxylic acid indazol-1-ylmethyl ester] | 0.87
O=C(O)COc1ccc(Cl)cc1[C@@H]1c2ccc(F)cc2CCN1C(=O)OCc1noc2ccccc12 [Example 348, (S)-1-(2-Carboxymethoxy-5-chloro-phenyl)-6-fluoro-3,4-dihydro-1H-isoquinoline-2-carboxylic acid benzo[d]isoxazol-3-ylmethyl ester] | 0.4
O=C(O)COc1ccc(Cl)cc1[C@@H]1c2ccc(F)c(F)c2CCN1C(=O)OCc1ccccc1F [Example 349, (S)-1-(2-Carboxymethoxy-5-chloro-phenyl)-5,6-difluoro-3,4-dihydro-1H-isoquinoline-2-carboxylic acid 2-fluoro-benzyl ester] | 8.99
O=C(O)COc1ccc(Cl)cc1[C@@H]1c2ccc(F)c(F)c2CCN1C(=O)OCc1cccc(F)c1 [Example 350, (S)-1-(2-Carboxymethoxy-5-chloro-phenyl)-5,6-difluoro-3,4-dihydro-1H-isoquinoline-2-carboxylic acid 3-fluoro-benzyl ester] | 3.38
O=C(O)COc1ccc(Cl)cc1[C@@H]1c2ccc(F)c(F)c2CCN1C(=O)OCc1cccc(F)c1F [Example 351, (S)-1-(2-Carboxymethoxy-5-chloro-phenyl)-5,6-difluoro-3,4-dihydro-1H-isoquinoline-2-carboxylic acid 2,3-difluoro-benzyl ester] | 3.27
O=C(O)COc1ccc(Cl)cc1[C@@H]1c2ccc(F)cc2CCN1C(=O)OCc1ccccc1F [Example 352, (S)-1-(2-Carboxymethoxy-5-chloro-phenyl)-6-fluoro-3,4-dihydro-1H-isoquinoline-2-carboxylic acid 2-fluoro-benzyl ester] | 1.87
O=C(O)COc1ccc(Cl)cc1[C@@H]1c2ccc(F)cc2CCN1C(=O)OCc1cccc(F)c1 [Example 353, (S)-1-(2-Carboxymethoxy-5-chloro-phenyl)-6-fluoro-3,4-dihydro-1H-isoquinoline-2-carboxylic acid 3-fluoro-benzyl ester] | 2.79
O=C(O)COc1ccc(Cl)cc1[C@@H]1c2ccc(F)cc2CCN1C(=O)OCc1cccc(F)c1F [Example 354, (S)-1-(2-Carboxymethoxy-5-chloro-phenyl)-6-fluoro-3,4-dihydro-1H-isoquinoline-2-carboxylic acid 2,3-difluoro-benzyl ester] | 7.72
O=C(O)COc1ccc(Cl)cc1[C@@H]1c2ccccc2CCN1C(=O)OCc1cccc(F)c1 [Example 355, (S)-1-(2-Carboxymethoxy-5-chloro-phenyl)-3,4-dihydro-1H-isoquinoline-2-carboxylic acid 3-fluoro-benzyl ester] | 2.01
COc1ccccc1COC(=O)N1CCc2ccccc2[C@H]1c1cc(Cl)ccc1OCC(=O)O [Example 356, (S)-1-(2-Carboxymethoxy-5-chloro-phenyl)-3,4-dihydro-1H-isoquinoline-2-carboxylic acid 2-methoxy-benzyl ester] | 3.58
O=C(O)COc1ccc(Cl)cc1[C@@H]1c2ccccc2CCN1C(=O)OCc1ccccc1F [Example 357, (S)-1-(2-Carboxymethoxy-5-chloro-phenyl)-3,4-dihydro-1H-isoquinoline-2-carboxylic acid 2-fluoro-benzyl ester] | 1.23
O=C(O)COc1ccc(Cl)cc1[C@@H]1c2cccc(F)c2CCN1C(=O)OCc1cccc(F)c1 [Example 358, (S)-1-(2-Carboxymethoxy-5-chloro-phenyl)-5-fluoro-3,4-dihydro-1H-isoquinoline-2-carboxylic acid 3-fluoro-benzyl ester] | 2.84
